Experimental data published in patent US7405314B2 (priority 2004, dated 2008).

Columns and labels:
[1] = tested on: panel of 60 tumor cell lines; assay type: cell-based, human
[2] = tested on: HL60 human leukemia cells; assay type: cell-based
[3] = tested on: HL60 cells; assay type: cell-based, human
[4] = tested on: U937/PR9 cells (PML/RAR alpha); assay type: cell-based, human
[5] = tested on: normal donor cells
[6] = tested on: Swiss Webster mice; settings: mouse, in vivo
[7] = tested on: mice; settings: mouse, in vivo

C[As](C)SC[C@H](NC(=O)CC[C@H](N)C(=O)O)C(=O)NCC(=O)O [SGLU1, S-(Dimethylarsino) Glutathione]
anticancer activity against tumor cell line panel [1]: evidence of activity at low concentrations | induction of apoptosis (annexin V staining), events involved [2]: involves change of the potential of mitochondrial membrane (CMXRos staining) and activation of caspases | cell cycle disturbance [3]: marked accumulation of cells in S-phase | influence of functional PML/Rar alpha gene on sensitivity of the cells [4]: no influence on the sensitivity | toxicity to normal cells compared with arsenic trioxide [5]: less toxic then arsenic trioxide | tolerability [6]: tolerated | doses at which deaths occurred ([7]; both, iv): 250, 300, and 350 mg/kg/day | no-observable-effect level for female mice ([7]; female, iv): 150 mg/kg | no-observable-effect level (NOEL) for male mice ([7]; male, iv): 100 mg/kg/day | testicular seminiferous tubular degeneration, incidence ([7]; 150 mg/kg/day): ⅕ | centrilobular hypertrophy of hepatocytes, incidence ([7]; 200 mg/kg/day): ⅕ | organs with compound-related lesions ([7]; iv): lung, liver, thymus, and testes | sex difference in susceptibility (deaths) ([7]; iv): female mice being more susceptible than males
